Test results as given in patent US8735620B2, “Processes for preparing (E)-styrylbenzylsulfone compounds and uses thereof for treating proliferative disorders” (priority 2008, dated 2014).
Like-named read-outs stand apart in the source and are kept apart here.

Tests used:
SK-MEL-28 = assay: Tumor cell killing, SK-MEL-28; assay type: cell-based, human; settings: SK-MEL-28, MELANOMA; read-out: Tumor cell killing (IC50) concentration
Excerpt: (§2) Tissue Culture and Reagents: Paclitaxel was purchased from Sigma. Cell lines were purchased from ATCC. Cell lines were routinely grown in DMEM or RPM1 (CellGro) supplemented with 10% fetal bovine serum (Atlas) and 1 unit/mL penicillin-streptomycin (Gibco).

Namalwa = assay: Tumor cell killing, Namalwa; assay type: cell-based, human; settings: Burkitt's Lymphoma (B-cell), read-out: Tumor cell killing (IC50) concentration
[1] = tested on: H157 (human lung tumor cell line); assay: Cytotoxicity assay (trypan blue exclusion, 96 h), H157; assay type: cell-based
Excerpt: as §2

MIA-PaCa2 = assay: Tumor cell killing, MIA-PaCa2; assay type: cell-based, human; settings: MIA-PaCa2, PANCREATIC; read-out: Tumor cell killing (IC50) concentration
Excerpt: as §2

COLO-205 = assay: Tumor cell killing, COLO-205; assay type: cell-based, human; settings: COLO-205, COLO-RECTAL; read-out: Tumor cell killing (IC50) concentration
Excerpt: as §2

OV-CAR-3 = assay: Tumor cell killing, OV-CAR-3; assay type: cell-based, human; settings: OV-CAR-3, OVARIAN; read-out: Tumor cell killing (IC50) concentration
Excerpt: as §2

[2] = tested on: BT20, DU145, H157 and DLD1 cell lines; assay: In vitro cytotoxicity, four human tumor cell lines (SAR discussion); assay type: cell-based
Method: A number of tumor cell lines were tested using a dose response end point assay system. The cells were grown in either DMEM or RPMI supplemented with 10% fetal bovine serum and 1 unit/mL Penicillin-Streptomycin solution. The tumor cells were plated into 6 well dishes at a cell density of 1.0×10^5 cells/mL/well and compounds were added 24 h later at various concentrations. Cell counts were determined from duplicate wells after 96 h of treatment. The total number of viable cells was determined by trypan blue exclusion.
Following the synthesis of this group of compounds, their in vitro cytotoxicity was assessed using four different human tumor cell lines derived from human breast (BT20), prostate (DU145), lung (H157) and colorectal (DLD1) cancers. […] In a majority of the compounds described here, a methoxy group was kept constant at the 4th position on the aromatic ring of the benzyl moiety.

Raji = assay: Tumor cell killing, Raji; assay type: cell-based, human; settings: Burkitt's Lymphoma (B-cell), read-out: Tumor cell killing (IC50) concentration
[3] = tested on: mantle cell lymphoma cell lines; settings: Park et al Oncogene 2007; cited from earlier work
CEM = assay: Tumor cell killing, CEM; assay type: cell-based, human; settings: read-out: Tumor cell killing (IC50) concentration
MES-SA/DX5 = assay: Tumor cell killing, MES-SA/DX5 (multidrug resistant subline); assay type: cell-based, human; settings: for IC50: *MESSA/DX5, RESISTANT SARCOMA (multi-drug resistant), read-out: Tumor cell killing (IC50) concentration
Method: (§1) A. 6aa inhibits the growth of parental (MES-SA) and Paclitaxel resistant (MES-SA/DX5) cell lines with equal efficiency. The parental uterine sarcoma cells and the MDR positive (MES-SA/DX5) cells were plated into 6 well dishes and treated with various concentrations of 6aa and Paclitaxel for 96 h. The number of viable cells from duplicate plates was determined by trypan blue exclusion. B. Soft Agar Assays. MIA-PaCa-2 cells (1.0×10^5) were plated in soft agar containing various concentrations of each compound in triplicates. After three weeks of growth, the plates were stained for 48 h using 0.05% nitroblue tetrazolium solution. Representative plates were photographed using an Olympus stereoscope mounted with a Sony digital camera system (DKC5000, Sony Inc). Tissue Culture and Reagents: […] Cell lines were purchased from ATCC. Cell lines were routinely grown in DMEM or RPM1 (CellGro) supplemented with 10% fetal bovine serum (Atlas) and 1 unit/mL penicillin-streptomycin (Gibco). A number of tumor cell lines were tested using a dose response end point assay system. The cells were grown in either DMEM or RPMI supplemented with 10% fetal bovine serum and 1 unit/mL Penicillin-Streptomycin solution. […] Cell counts were determined from duplicate wells after 96 h of treatment. The total number of viable cells was determined by trypan blue exclusion.

PC-3 = assay: Tumor cell killing, PC-3; assay type: cell-based, human; settings: PC-3, PROSTATE (AR+); read-out: Tumor cell killing (IC50) concentration
Excerpt: as §2

[4] = tested on: BT20 (human breast tumor cell line); assay: Cytotoxicity assay (trypan blue exclusion, 96 h), BT20; assay type: cell-based; settings: BT20, 96 h treatment
Excerpt: as §2

[5] = tested on: panel of 60 human cancer cell-lines; assay: NCI Developmental Therapeutics Program panel of 60 human cancer cell-lines; assay type: cell-based; settings: at nanomolar concentrations, including drug-resistant cell-lines
HCT-15 = assay: Tumor cell killing, HCT-15; assay type: cell-based, human; settings: HCT-15, COLO-RECTAL; read-out: Tumor cell killing (IC50) concentration
Excerpt: as §2

AGS = assay: Tumor cell killing, AGS; assay type: cell-based, human; settings: GASTRIC, read-out: Tumor cell killing (IC50) concentration
Excerpt: as §2

Daudi = assay: Tumor cell killing, Daudi; assay type: cell-based, human; settings: Burkitt's Lymphoma (B-cell), read-out: Tumor cell killing (IC50) concentration
T47D = assay: Tumor cell killing, T47D; assay type: cell-based, human; settings: BREAST (ER+), read-out: Tumor cell killing (IC50) concentration
Excerpt: as §2

[6] = tested on: DLD1 (human colorectal tumor cell line); assay: Cytotoxicity assay (trypan blue exclusion, 96 h), DLD1; assay type: cell-based
Excerpt: as §2

MCF-7 = assay: Tumor cell killing, MCF-7; assay type: cell-based, human; settings: MCF-7, BREAST (ER+); read-out: Tumor cell killing (IC50) concentration
Excerpt: as §2

CEM/C2 = assay: Tumor cell killing, CEM/C2 (camptothecin-resistant subline); assay type: cell-based, human; settings: *CEM/C2, RESISTANT LEUKEMIC (multi-drug resistant); read-out: Tumor cell killing (IC50) concentration
[7] = tested on: DU145 (human prostate tumor cell line); assay: Cytotoxicity assay (trypan blue exclusion, 96 h), DU145; assay type: cell-based
Excerpt: as §2

MES-SA = assay: Tumor cell killing, MES-SA (parental uterine sarcoma); assay type: cell-based, human; settings: MES-SA, SARCOMA; read-out: Tumor cell killing (IC50) concentration
Method: as §1

N417 = assay: Tumor cell killing, N417; assay type: cell-based, human; settings: N417, SCLC; read-out: Tumor cell killing (IC50) concentration
Excerpt: as §2

MOLT-4 = assay: Tumor cell killing, MOLT-4; assay type: cell-based, human; settings: MOLT-4, T-lymphoblastic: ALL; read-out: Tumor cell killing (IC50) concentration
[8] = H157, 96 h treatment, read-out: H157 IC50
[9] = H157, NSCLC, Table 2, read-out: Tumor cell killing (IC50) concentration
[10] = LEUKEMIC (second listing, r39, parental of CEM/C2)
[11] = DLD1, 96 h treatment, read-out: DLD1 IC50
[12] = DLD-1, COLO-RECTAL, Table 2, read-out: Tumor cell killing (IC50) concentration
[13] = DU145, 96 h treatment, read-out: DU145 IC50
[14] = DU145, PROSTATE (AR−), Table 2, read-out: Tumor cell killing (IC50) concentration

Compound `COc1cc(OC)c(/C=C/S(=O)(=O)Cc2ccc(OC)c(O)c2)c(OC)c1` [6aa, (E)-2,4,6-Trimethoxystyryl-3-Hydroxy-4-Methoxybenzyl Sulfone] has an IC50 (SK-MEL-28) of 7 nM, an IC50 (Namalwa) of 6 nM and an IC50 [1, 8] of 4 nM. It also gave an IC50 [1, 9] of 7 nM, an IC50 (MIA-PaCa2) of 4 nM and an IC50 (COLO-205) of 9 nM. For the same compound, the IC50 (OV-CAR-3) was 6 nM, the “cytotoxic activity, SAR statement” value ([2]; four human tumor cell lines) was “best activity in the entire series” and the “fold more active than 6s” value ([2]; in all four cell lines) was 8 to 10 fold. The IC50 (Raji) was 4 nM, the “effect on mantle cell lymphoma cell lines” value [3] was “altered the growth and cell cycle status” and the IC50 (CEM; LEUKEMIC (first listing, r26)) was 9 nM. The IC50 (CEM; [10]) was 10 nM, the IC50 (MES-SA/DX5) was 5 nM and the “sensitivity of parental and MDR positive cell lines to cell killing activity” value (MES-SA/DX5; MES-SA and MES-SA/DX5) was “equally sensitive”. For the same compound, the IC50 (PC-3) was 8 nM, the IC50 [4] was 10 nM and the “growth inhibition of NCI 60 cell-line panel” value [5] was “inhibited the growth of all of the tested cell lines”. For the same compound, the IC50 (HCT-15) was 8 nM, the IC50 (AGS) was 7 nM and the IC50 (Daudi) was 7 nM. For the same compound, the IC50 (T47D) was 6 nM, the IC50 [6, 11] was 3 nM and the IC50 [6, 12] was 8 nM. The IC50 (MCF-7) was 4 nM, the IC50 (CEM/C2) was 10 nM and the IC50 [7, 13] was 3 nM. It also gave an IC50 [7, 14] of 7 nM, an IC50 (MES-SA) of 6 nM and an IC50 (N417) of 5 nM. The IC50 (MOLT-4) was 5 nM.

Compound `COc1ccc(CS(=O)(=O)/C=C/c2c(OC)cc(OC)cc2OC)cc1` [6s, (E)-2,4,6-Trimethoxystyryl-4-Methoxybenzyl sulfone] has an IC50 (SK-MEL-28) of 40 nM, an IC50 (Namalwa) of 15 nM and an IC50 [1, 8] of 30 nM. For the same compound, the IC50 [1, 9] was 30 nM, the IC50 (MIA-PaCa2) was 8 nM and the IC50 (COLO-205) was 15 nM. For the same compound, the IC50 (OV-CAR-3) was 8 nM, the “fold more active than 6m” value ([2]; cell-killing assays) was 20 fold and the IC50 (Raji) was 9 nM. The “effect on mantle cell lymphoma cell lines” value [3] was “altered the growth and cell cycle status”, the IC50 (CEM; LEUKEMIC (first listing, r26)) was 30 nM and the IC50 (CEM; [10]) was 30 nM. The IC50 (MES-SA/DX5) was 10 nM, the IC50 (PC-3) was 30 nM and the IC50 [4] was 20 nM. The “growth inhibition of NCI 60 cell-line panel” value [5] was “inhibited the growth of all of the tested cell lines”, the IC50 (HCT-15) was 20 nM and the IC50 (AGS) was 20 nM. The IC50 (Daudi) was 8 nM, the IC50 (T47D) was 25 nM and the IC50 [6, 11] was 40 nM. It also gave an IC50 [6, 12] of 40 nM, an IC50 (MCF-7) of 3 nM and an IC50 (CEM/C2) of 10 nM. For the same compound, the IC50 [7, 13] was 25 nM, the IC50 [7, 14] was 25 nM and the IC50 (MES-SA) was 10 nM. For the same compound, the IC50 (N417) was 8 nM and the IC50 (MOLT-4) was 9 nM.
